What all share (assay type): cell-based
Assay [1] has as its target T1, FKBP12 (Homo sapiens, UniProt P62942). In words: Western blot of FLAG-FKBP12 degradation in HEK293T cells expressing HA-FBXO22. Details: expressed in transfected cells; host or cells: HEK293T. How it is done: (§1) The bar graph represents quantification of the FLAG-FKBP12/HSP90 protein content. Data are presented as the mean values±s.e.m. […] HEK293T cells expressing HA-FBXO22 were treated with 0.025-15 μM 22-SLF for 8 h. The graph represents quantification of the FLAG-FKBP12/HSP90 protein content. Data are presented as the mean values (n=2 biological independent samples). […] The bar graph represents quantification of the FLAG-FKBP12/HSP90 protein content. KO, knockout; WT, wild type. Data are presented as the mean values (n=2 biological independent samples). […] The bar graph represents quantification of the FLAG-FKBP12/HSP90 protein content. Data are presented as the mean values±s.e.m. […] The result is representative of two independent experiments with similar results. WCL, whole-cell lysate; IP, immunoprecipitate.
FIGS. 3A-3H show FBXO22 C227 and C228 are involved in 22-SLF-mediated degradation of FKBP12. […] Among 5,650 quantified IA-DTB-modified peptides, four cysteines were identified on FBXO22 (C83, C117, C228, and C365). […] Data are presented as the mean values (n=2 biological independent samples for DMSO treatment; n=3 biological independent samples for 22-SLF Treatment). […] The bag graph represents quantification of the FLAG-FKBP12/HSP90 protein content. Data are presented as mean values (n=2 biological independent samples). […] The bar graph represents quantification of the FLAG-FKBP12/HSP90 protein content. Data are presented as the mean values (n=2 biological independent samples).
FIG. 11A-11B show the acrylamide variant of 22-SLF, 22a-SLF, induced the degradation of FKBP12. […] HEK293T cells expressing HA-FBXO22 were treated with 0.5, 1, or 2 μM of 22-SLF or 22a-SLF for 8 hours. The graph represents quantification of the FLAG-FKBP12/HSP90 protein content. Data are presented as mean values (n=2 biological independent samples).
Next, Western blot analysis was used to measure the degradation of FKBP12 induced by 22-SLF. To achieve this, FLAG-tagged FKBP12 and HA-tagged FBXO22 were stably overexpressed in HEK293T cells, followed by subjecting the cells to varying concentrations of 22-SLF. […] Moreover, 22-SLF's effect on FLAG-FKBP12 degradation was concentration-dependent (FIG. 2a). […] The rescue enabled by MLN4924 indicates the involvement of a Cullin-RING ligase (CRL) in the degradation process. This is consistent with FBXO22 belonging to SKP1-CUL1-F-box protein (SCF) ubiquitin ligase complexes, a subfamily of CRL. […] To provide a more comprehensive insight into 22-SLF-induced FKBP12 degradation, a dose-dependent degradation experiment using 11 concentrations of 22-SLF ranging from […] to 15 μM was conducted. This experiment enabled determination of two parameters, the Dmax value, which reached 89%, and the half-maximal degradation concentration (DC50) value, which measured at 0.5 μM (FIG. 2B). […] Collectively, this array of data supports the canonical mechanism of ligand-induced protein degradation. In this mechanism, 22-SLF orchestrates the recruitment of FBXO22 to FKBP12, culminating in the proteasomal degradation of FKBP12.
To identify the cysteine residue(s) in FBXO22 engaged with 22-SLF, HA-FBXO22-expressing HEK293T cells were treated with either DMSO or 22-SLF (2 μM, 2 hours). Using competitive cysteine-directed activity-based protein profiling (ABPP), a chemical proteomics for the measurement of target engagement, the degree of blockade of iodoacetamide-desthiobiotin (IA-DTB)-modified cysteines on FBXO22 was quantified. From a pool of 5,650 quantified IA-DTB-modified peptides, four cysteines on FBXO22 (C83, C117, C228, and C365) (FIG. 3a) were identified, with approximately 20% of FBXO22 C228 being blocked by 22-SLF treatment (FIG. 3b), indicating the potential interaction with this cysteine by 22-SLF. Consequently, C228 was mutated to alanine and HA-FBXO22 C228A-expressing HEK293T cells were generated (FIG. 3c). […]

For the next assay, the target named is T2, CUTA (Homo sapiens, UniProt O60888).
T2 construct: endogenous in cells; host or cells: A549 parental and FBXO22 knockout
T2 sequence (O60888 33-179): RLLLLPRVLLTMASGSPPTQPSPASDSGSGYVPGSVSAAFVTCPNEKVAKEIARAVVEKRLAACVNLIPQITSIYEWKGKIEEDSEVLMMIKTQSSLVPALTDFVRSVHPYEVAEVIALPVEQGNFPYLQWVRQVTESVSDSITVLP
In words: MS-based global proteomic analysis in A549 parental and FBXO22 knockout cells (CUTA). The settings on record: 2 μM, 24 hours. An excerpt:
As an F-box protein, FBXO22 is a pivotal player in the context of tumor progression. FBXO22 has many oncogenic functions, including propelling the ubiquitination and subsequent degradation of a diverse spectrum of substrates, such as histone lysine demethylase 4 subfamily KDM4A/B, methylated p53, p21, PTEN, KLF4, and LKB1. […] To establish the role of endogenous FBXO22 in facilitating 22-SLF-induced FKBP12 degradation, FBXO22 knockout was used in a panel of cancer cell lines, including A549 (lung cancer), MDA-MB-231 (breast cancer), and PC3 (prostate cancer). The efficacy of FBXO22 knockout was verified through both genomic PCR and global proteomic analysis (FIG. 8b,c). […] Furthermore, mass spectrometry (MS)-based global proteomic analysis was conducted on A549 parental and FBXO22 knockout cells, following the treatment with 2 μM 22-SLF for 24 hours. […] To further substantiate the engagement of FBXO22 by the electrophilic portion of 22-SLF, a biotin-conjugated probe known as 22-biotin (FIG. 2f) was synthesized. This probe was then immobilized onto streptavidin-coated beads, which were subsequently subjected to interaction with lysates from HEK293T cells expressing HA-tagged FBXO22.

The target in assay [2] is T1, FKBP12. The experiment in a line: MS-based global proteomic analysis in A549 parental and FBXO22 knockout cells (FKBP12). Details: expressed in transfected cells. As to conditions: 2 μM, 24 hours. Here is the method:
as §1
Data is obtained from Gene Expression Profiling Interactive Analysis (GEPIA). […] KDM4A and KDM4B are two reported substrates of FBXO22.
As an F-box protein, FBXO22 is a pivotal player in the context of tumor progression. FBXO22 has many oncogenic functions, including propelling the ubiquitination and subsequent degradation of a diverse spectrum of substrates, such as histone lysine demethylase 4 subfamily KDM4A/B, methylated p53, p21, PTEN, KLF4, and LKB1. […]

A value given as a limit tells only on which side of the number the result lay.

T1 sequence (P62942 whole entry): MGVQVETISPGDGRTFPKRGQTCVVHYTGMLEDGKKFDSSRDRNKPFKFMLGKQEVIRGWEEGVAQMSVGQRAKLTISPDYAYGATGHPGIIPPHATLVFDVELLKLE

With `CCC(C)(C)C(=O)C(=O)N1CCCC[C@H]1C(=O)O[C@H](CCc1ccc(OC)c(OC)c1)c1cccc(OCC(=O)NCCCOCCOCCOCCCN(C(=O)CCl)C(C(=O)NCc2ccccc2)c2nc3ccccc3s2)c1` (stereo partly drawn) [22-SLF], the DC50 at FKBP12 [1] (11 concentrations, 0.25 to 15 μM, 8 h, HEK293T expressing HA-FBXO22, read-out: half-maximal degradation concentration (DC50)) was 500 nM. Also, the “Concentration dependence of FLAG-FKBP12 degradation” value on FKBP12 [1] (HEK293T cells expressing HA-FBXO22) is “concentration-dependent”. The “FKBP12 degradation with FBXO22 double mutant C227AC228A” value on FKBP12 [1] (HEK293T cells expressing the variant) is listed as “completely blocked”. At FKBP12 [1] (HEK293T cells expressing the variants), the “FKBP12 degradation with FBXO22 single mutants C227A and C228A” value was “partially impeded”. Besides, the “Loss of FLAG-FKBP12 expression in cells lacking HA-FBXO22” value at FKBP12 [1] (HEK293T cells without HA-FBXO22) was “no reduction was observed”. The compound also displayed a Dmax on FKBP12 [1] (HEK-293T, 11 concentrations, 0.25 to 15 μM, 8 h, HEK293T expressing HA-FBXO22) of 89%. Further, at FKBP12 [1] (time course), the “Time to nearly complete FLAG-FKBP12 degradation” value was no more than 2 h. Further, the “CUTA protein reduction in global proteomics” value on CUTA is “observed to undergo reduction upon 22-SLF treatment in A549 parental cells, but not in the FBXO22 knockout setting”. At FKBP12 [2], the “Selectivity of FKBP12 degradation in global proteomics” value is on record as “selective degradation of endogenous FKBP12 in FBXO22 wildtype, but not knockout context”.

For orientation: Dmax means the greatest extent of degradation seen.
